ChEMBL document CHEMBL3885861, “Open TG-GATES”

Species on record: Rattus norvegicus
Assay: Open TG-GATES - Regimen: Single
Type: toxicity, organism-based, Sprague-Dawley
Set-up: regimen Single, gender Male, age 6 weeks
Details: in vivo, po, 0 mg/kg, route gavage, dose level Control; for APTT / Bas / Eos / Fbg / Hb / Ht / Lym / MCH / MCHC / MCV / Mono / Neu / PT / Plat / RBC / Ret / WBC: tissue Blood; for KIDNEY_L / KIDNEY_R / KIDNEY_TOTAL: tissue Kidney; for LIVER: tissue Liver; for ALP / ALT / AST / BUN / CRE / Ca / Cl / DBIL / GLC / IP / K / LDH / Na / PL / RALB / TBIL / TC / TG / TP / gamma-GTP: tissue Plasma

`COc1cc([C@@H]2c3cc4c(cc3[C@@H](O[C@@H]3O[C@@H]5CO[C@@H](C)O[C@H]5[C@H](O)[C@H]3O)[C@H]3COC(=O)[C@H]23)OCO4)cc(OC)c1O` [ETOPOSIDE] gave a TERMINAL_BW (3 h) of 199.4 g, an APTT (3 h) of 17.1 s and a Bas (3 h) of 0%. The Eos (3 h) was 1.2%, the Fbg (3 h) was 192.2 mg/dL and the Hb (3 h) was 13.3 g/dL. It also gave a Ht (3 h) of 39.3%, a Lym (3 h) of 74.8% and an MCH (3 h) of 22.4 pg. For the same compound, the MCHC (3 h) was 33.8%, the MCV (3 h) was 66.2 fL and the Mono (3 h) was 8%. The Neu (3 h) was 15.8%, the PT (3 h) was 12.2 s and the Plat (3 h) was 113.5 x10_4/uL. It also gave an RBC (3 h) of 594.2 x10_4/ul, a Ret (3 h) of 10.6% and a WBC (3 h) of 85 x10_2/uL. It also gave a KIDNEY_L (3 h) of 1 g, a KIDNEY_R (3 h) of 1 g and a KIDNEY_TOTAL (3 h) of 2 g. It also gave an LIVER (3 h) of 9.5 g, an ALP (3 h) of 857.8 IU/L and an ALT (3 h) of 32.8 IU/L. The AST (3 h) was 67.6 IU/L, the BUN (3 h) was 11.8 mg/dL and the CRE (3 h) was 0.5 mg/dL. For the same compound, the Ca (3 h) was 10.4 mg/dL, the Cl (3 h) was 105 meq/L and the DBIL (3 h) was 0.034 mg/dL. For the same compound, the GLC (3 h) was 197.6 mg/dL, the IP (3 h) was 9.1 mg/dL and the K (3 h) was 4.7 meq/L. It also gave an LDH (3 h) of 97.4 IU/L, a Na (3 h) of 141.6 meq/L and a PL (3 h) of 126.6 mg/dL. For the same compound, the RALB (3 h) was 3.4 g/dL, the TBIL (3 h) was 0.3 mg/dL and the TC (3 h) was 71.8 mg/dL. It also gave a TG (3 h) of 43 mg/dL, a TP (3 h) of 5.2 g/dL and a gamma-GTP (3 h) of 1 IU/L. The TERMINAL_BW (6 h) was 198 g, the APTT (6 h) was 16.6 s and the Bas (6 h) was 0%. It also gave an Eos (6 h) of 0.8%, a Fbg (6 h) of 201.6 mg/dL and a Hb (6 h) of 13.4 g/dL. For the same compound, the Ht (6 h) was 39.7%, the Lym (6 h) was 82.4% and the MCH (6 h) was 22 pg. It also gave an MCHC (6 h) of 33.7%, an MCV (6 h) of 65.3 fL and a Mono (6 h) of 5.6%. The Neu (6 h) was 11.2%, the PT (6 h) was 11.9 s and the Plat (6 h) was 117.8 x10_4/uL. It also gave an RBC (6 h) of 607.8 x10_4/ul, a Ret (6 h) of 9.8% and a WBC (6 h) of 93.7 x10_2/uL. The KIDNEY_L (6 h) was 0.9 g, the KIDNEY_R (6 h) was 0.9 g and the KIDNEY_TOTAL (6 h) was 1.8 g. For the same compound, the LIVER (6 h) was 9.1 g, the ALP (6 h) was 946.6 IU/L and the ALT (6 h) was 36 IU/L. The AST (6 h) was 65.2 IU/L, the BUN (6 h) was 11.6 mg/dL and the CRE (6 h) was 0.6 mg/dL. The Ca (6 h) was 10.6 mg/dL, the Cl (6 h) was 105 meq/L and the DBIL (6 h) was 0.016 mg/dL. For the same compound, the IP (6 h) was 10.5 mg/dL, the K (6 h) was 4.8 meq/L and the LDH (6 h) was 65.8 IU/L. The Na (6 h) was 142.4 meq/L, the PL (6 h) was 132.8 mg/dL and the RALB (6 h) was 3.3 g/dL. For the same compound, the TBIL (6 h) was 0.4 mg/dL, the TC (6 h) was 72.8 mg/dL and the TG (6 h) was 68.4 mg/dL. It also gave a TP (6 h) of 5.2 g/dL, a gamma-GTP (6 h) of 1 IU/L and a TERMINAL_BW (9 h) of 194.1 g. For the same compound, the APTT (9 h) was 16.9 s, the Bas (9 h) was 0% and the Eos (9 h) was 1.2%. The Fbg (9 h) was 206 mg/dL, the Hb (9 h) was 13.4 g/dL and the Ht (9 h) was 39.7%. For the same compound, the Lym (9 h) was 74.4%, the MCH (9 h) was 22.2 pg and the MCHC (9 h) was 33.9%. It also gave an MCV (9 h) of 65.6 fL, a Mono (9 h) of 9.8% and a Neu (9 h) of 15%. It also gave a PT (9 h) of 10.9 s, a Plat (9 h) of 117.1 x10_4/uL and an RBC (9 h) of 604.6 x10_4/ul. The Ret (9 h) was 9.1%, the WBC (9 h) was 71.2 x10_2/uL and the KIDNEY_L (9 h) was 0.9 g. For the same compound, the KIDNEY_R (9 h) was 0.9 g, the KIDNEY_TOTAL (9 h) was 1.9 g and the LIVER (9 h) was 8.4 g. It also gave an ALP (9 h) of 752.2 IU/L, an ALT (9 h) of 29.8 IU/L and an AST (9 h) of 58.2 IU/L. For the same compound, the BUN (9 h) was 10.4 mg/dL, the CRE (9 h) was 0.5 mg/dL and the Ca (9 h) was 10.6 mg/dL. It also gave a Cl (9 h) of 107.6 meq/L, a DBIL (9 h) of 0.022 mg/dL and a GLC (9 h) of 190.6 mg/dL. The IP (9 h) was 10.1 mg/dL, the K (9 h) was 4.6 meq/L and the LDH (9 h) was 59.2 IU/L. It also gave a Na (9 h) of 144.6 meq/L, a PL (9 h) of 127.4 mg/dL and an RALB (9 h) of 3.4 g/dL. For the same compound, the TBIL (9 h) was 0.4 mg/dL, the TC (9 h) was 71.6 mg/dL and the TG (9 h) was 28.4 mg/dL. The TP (9 h) was 5.4 g/dL, the gamma-GTP (9 h) was 0.8 IU/L and the TERMINAL_BW (24 h) was 215.6 g. The APTT (24 h) was 16.3 s, the Bas (24 h) was 0% and the Eos (24 h) was 1.2%. It also gave a Fbg (24 h) of 207.6 mg/dL, a Hb (24 h) of 13.1 g/dL and a Ht (24 h) of 38.4%. It also gave a Lym (24 h) of 78.2%, an MCH (24 h) of 22.7 pg and an MCHC (24 h) of 34.1%. It also gave an MCV (24 h) of 66.6 fL, a Mono (24 h) of 6% and a Neu (24 h) of 14.6%. It also gave a PT (24 h) of 11.6 s, a Plat (24 h) of 107.4 x10_4/uL and an RBC (24 h) of 578 x10_4/ul. For the same compound, the Ret (24 h) was 8.8%, the WBC (24 h) was 94.9 x10_2/uL and the KIDNEY_L (24 h) was 1 g. It also gave a KIDNEY_R (24 h) of 1 g, a KIDNEY_TOTAL (24 h) of 2 g and an LIVER (24 h) of 10.9 g. For the same compound, the ALP (24 h) was 866 IU/L, the ALT (24 h) was 38.2 IU/L and the AST (24 h) was 68.2 IU/L. For the same compound, the CRE (24 h) was 0.6 mg/dL, the Ca (24 h) was 10.9 mg/dL and the Cl (24 h) was 104.6 meq/L. The DBIL (24 h) was 0.03 mg/dL, the GLC (24 h) was 196.6 mg/dL and the IP (24 h) was 7.7 mg/dL. It also gave a K (24 h) of 4.8 meq/L, an LDH (24 h) of 85.2 IU/L and a Na (24 h) of 141.4 meq/L. The PL (24 h) was 161.6 mg/dL, the RALB (24 h) was 3.6 g/dL and the TBIL (24 h) was 0.3 mg/dL. It also gave a TC (24 h) of 92.2 mg/dL, a TG (24 h) of 84.4 mg/dL and a TP (24 h) of 5.6 g/dL. For the same compound, the gamma-GTP (24 h) was 1.6 IU/L.
